Measured values published in paper PMC5218480 (PLoS ONE, 2017).

System: MV-4-11 cells
Test: Gene expression microarray analysis (Affymetrix PrimeView) and GSEA
Assay type: cell-based, human
Set-up: RFU PODN (11730768_x_at) / Fold change /veh PODN (11730768_x_at) / RFU LINC00158 (11744669_a_at) / Fold change /veh LINC00158 (11744669_a_at) / RFU DUSP10 (11751237_a_at) / Fold change /veh DUSP10 (11751237_a_at) / RFU ID3 (11757404_x_at) / Fold change /veh ID3 (11757404_x_at) / RFU PLEKHG5 (11737974_s_at) / Fold change /veh PLEKHG5 (11737974_s_at) / RFU LRRC4B (11730491_at) / Fold change /veh LRRC4B (11730491_at) / RFU GIMAP4 (11747438_a_at) / Fold change /veh GIMAP4 (11747438_a_at) / RFU KRT8 (11758183_x_at) / Fold change /veh KRT8 (11758183_x_at) / RFU CNN1 (11734310_a_at) / Fold change /veh CNN1 (11734310_a_at) / RFU VPS37D (11726825_at) / Fold change /veh VPS37D (11726825_at) / RFU C10orf10 (11716522_x_at) / Fold change /veh C10orf10 (11716522_x_at) / RFU KIR2DL2 /// KIR2DL4 /// KIR2DL5A /// KIR2DL5B /// KIR2DS1 /// KIR2DS2 /// KIR2DS3 /// KIR2DS4 /// KIR3DL3 /// KIR3DL3 /// KIR3DS1 (11738374_at) / Fold change /veh KIR2DL2 /// KIR2DL4 /// KIR2DL5A /// KIR2DL5B /// KIR2DS1 /// KIR2DS2 /// KIR2DS3 /// KIR2DS4 /// KIR3DL3 /// KIR3DL3 /// KIR3DS1 (11738374_at) / RFU C1QL1 (11718748_at) / Fold change /veh C1QL1 (11718748_at) / RFU TMPRSS4 (11747572_a_at) / Fold change /veh TMPRSS4 (11747572_a_at) / RFU HAMP (11756126_x_at) / Fold change /veh HAMP (11756126_x_at) / RFU RNFT2 (11725882_a_at) / Fold change /veh RNFT2 (11725882_a_at) / RFU NR4A2 (11747474_a_at) / Fold change /veh NR4A2 (11747474_a_at) / RFU ABCC12 (11746883_a_at) / Fold change /veh ABCC12 (11746883_a_at) / RFU TMEM136 (11760407_x_at) / Fold change /veh TMEM136 (11760407_x_at) / RFU CLDN22 /// WWC2 (11732394_at) / Fold change /veh CLDN22 /// WWC2 (11732394_at) / RFU HLA-DPB1 (11760878_x_at) / Fold change /veh HLA-DPB1 (11760878_x_at) / RFU SPINT1 (11716480_a_at) / Fold change /veh SPINT1 (11716480_a_at) / RFU GAP43 (11754022_s_at) / Fold change /veh GAP43 (11754022_s_at) / RFU A4GNT (11735810_at) / Fold change /veh A4GNT (11735810_at) / RFU PRB3 (11715151_x_at) / Fold change /veh PRB3 (11715151_x_at) / RFU TUBB4B (11761932_at) / Fold change /veh TUBB4B (11761932_at) / RFU CAPN14 (11732068_a_at) / Fold change /veh CAPN14 (11732068_a_at) / RFU TMCC2 (11721928_a_at) / Fold change /veh TMCC2 (11721928_a_at) / RFU IRGQ (11745062_a_at) / Fold change /veh IRGQ (11745062_a_at) / RFU FAM174B (11720279_a_at) / Fold change /veh FAM174B (11720279_a_at) / RFU TMPRSS4 (11748680_a_at) / Fold change /veh TMPRSS4 (11748680_a_at) / RFU FAM212B (11763350_a_at) / Fold change /veh FAM212B (11763350_a_at) / RFU PLEKHG5 (11743358_a_at) / Fold change /veh PLEKHG5 (11743358_a_at) / RFU ZSCAN30 (11745921_a_at) / Fold change /veh ZSCAN30 (11745921_a_at) / RFU CMKLR1 (11741424_a_at) / Fold change /veh CMKLR1 (11741424_a_at) / RFU LOC101060620 /// MAPK8IP1 (11723275_at) / Fold change /veh LOC101060620 /// MAPK8IP1 (11723275_at) / RFU SPTSSB (11747773_x_at) / Fold change /veh SPTSSB (11747773_x_at) / RFU PRSS12 (11739890_at) / Fold change /veh PRSS12 (11739890_at) / RFU BIN1 (11741810_x_at) / Fold change /veh BIN1 (11741810_x_at) / RFU WNT11 (11732464_a_at) / Fold change /veh WNT11 (11732464_a_at) / RFU C10orf10 (11716521_a_at) / Fold change /veh C10orf10 (11716521_a_at) / RFU C5orf56 (11738089_at) / Fold change /veh C5orf56 (11738089_at) / RFU CYB561 (11721691_x_at) / Fold change /veh CYB561 (11721691_x_at) / RFU ANKRD19P (11752326_a_at) / Fold change /veh ANKRD19P (11752326_a_at) / RFU OR2T12 /// OR2T33 /// OR2T8 (11738714_s_at) / Fold change /veh OR2T12 /// OR2T33 /// OR2T8 (11738714_s_at) / RFU VCAN (11748164_a_at) / Fold change /veh VCAN (11748164_a_at) / RFU JSRP1 (11732532_at) / Fold change /veh JSRP1 (11732532_at) / RFU KRTAP10-11 (11738290_x_at) / Fold change /veh KRTAP10-11 (11738290_x_at) / RFU MYO3A (11730013_a_at) / Fold change /veh MYO3A (11730013_a_at) / RFU EBF3 (11725865_a_at) / Fold change /veh EBF3 (11725865_a_at) / RFU CAMK2N1 (11719241_x_at) / Fold change /veh CAMK2N1 (11719241_x_at) / RFU C5orf56 (11738088_a_at) / Fold change /veh C5orf56 (11738088_a_at) / RFU OLFML3 (11715873_a_at) / Fold change /veh OLFML3 (11715873_a_at) / RFU LOC100653217 /// NTM (11731650_a_at) / Fold change /veh LOC100653217 /// NTM (11731650_a_at) / RFU MAPK11 (11762145_a_at) / Fold change /veh MAPK11 (11762145_a_at) / RFU FIZ1 (11724087_x_at) / Fold change /veh FIZ1 (11724087_x_at) / RFU OASL (11726364_x_at) / Fold change /veh OASL (11726364_x_at) / RFU SOX15 (11748057_x_at) / Fold change /veh SOX15 (11748057_x_at) / RFU CD79A (11719716_a_at) / Fold change /veh CD79A (11719716_a_at) / RFU HIST1H1D (11736915_at) / Fold change /veh HIST1H1D (11736915_at) / RFU CASKIN2 (11723855_a_at) / Fold change /veh CASKIN2 (11723855_a_at) / RFU LOC730098 (11760151_x_at) / Fold change /veh LOC730098 (11760151_x_at) / RFU OR4N2 (11742367_at) / Fold change /veh OR4N2 (11742367_at) / RFU PRRT2 (11749266_a_at) / Fold change /veh PRRT2 (11749266_a_at) / RFU SNX32 (11753110_a_at) / Fold change /veh SNX32 (11753110_a_at) / RFU CDHR5 (11726645_a_at) / Fold change /veh CDHR5 (11726645_a_at) / RFU RCAN1 (11760418_a_at) / Fold change /veh RCAN1 (11760418_a_at) / RFU FAM167A (11723789_a_at) / Fold change /veh FAM167A (11723789_a_at) / RFU FAM26E (11764081_at) / Fold change /veh FAM26E (11764081_at) / RFU ISYNA1 (11749810_s_at) / Fold change /veh ISYNA1 (11749810_s_at) / RFU ACY1 (11761880_at) / Fold change /veh ACY1 (11761880_at) / RFU 11764098_at / Fold change /veh 11764098_at / RFU SAMD14 (11745864_x_at) / Fold change /veh SAMD14 (11745864_x_at) / RFU NPB (11741838_a_at) / Fold change /veh NPB (11741838_a_at) / RFU TMPRSS6 (11731388_a_at) / Fold change /veh TMPRSS6 (11731388_a_at) / RFU KRTAP10-2 (11738614_at) / Fold change /veh KRTAP10-2 (11738614_at) / RFU ARHGAP8 /// PRR5-ARHGAP8 (11727945_x_at) / Fold change /veh ARHGAP8 /// PRR5-ARHGAP8 (11727945_x_at) / RFU KRTAP5-7 /// NADSYN1 (11734609_at) / Fold change /veh KRTAP5-7 /// NADSYN1 (11734609_at) / RFU RASL12 (11751679_a_at) / Fold change /veh RASL12 (11751679_a_at) / RFU CDKN2B (11736163_a_at) / Fold change /veh CDKN2B (11736163_a_at) / RFU PRF1 (11729649_at) / Fold change /veh PRF1 (11729649_at) / RFU, ZNF638 /// ZNF638-IT1 / Fold change vs veh, ZNF638 /// ZNF638-IT1 / RFU, PANK3 / Fold change vs veh, PANK3 / RFU, SH3YL1 / Fold change vs veh, SH3YL1 / RFU, ZEB2 / Fold change vs veh, ZEB2 / RFU, NRIP1 / Fold change vs veh, NRIP1 / RFU, PTTG1IP / Fold change vs veh, PTTG1IP / RFU, CAPN2 / Fold change vs veh, CAPN2 / RFU, MED14 / Fold change vs veh, MED14 / RFU, SNORA58 / Fold change vs veh, SNORA58 / RFU, C1orf63 / Fold change vs veh, C1orf63 / RFU, LRRFIP1 / Fold change vs veh, LRRFIP1 / RFU, NDUFAF7 / Fold change vs veh, NDUFAF7 / RFU, SLC12A2 / Fold change vs veh, SLC12A2 / RFU, IBTK / Fold change vs veh, IBTK / RFU, ESF1 / Fold change vs veh, ESF1 / Fold change vs veh, TMEM50B / RFU, TAOK1 / Fold change vs veh, TAOK1 / RFU, ACBD3 / Fold change vs veh, ACBD3 / RFU, TMA16 / Fold change vs veh, TMA16 / RFU, RWDD3 / Fold change vs veh, RWDD3 / RFU, BCAT1 / Fold change vs veh, BCAT1 / RFU, EDEM3 / Fold change vs veh, EDEM3 / RFU, TMEM33 / Fold change vs veh, TMEM33 / RFU, WDR75 / Fold change vs veh, WDR75 / RFU, AHCTF1 / Fold change vs veh, AHCTF1 / RFU, TFRC / Fold change vs veh, TFRC / RFU, ZDHHC17 / Fold change vs veh, ZDHHC17 / RFU, NOM1 / Fold change vs veh, NOM1 / RFU, ARL8B / Fold change vs veh, ARL8B / RFU, ZBTB11 / Fold change vs veh, ZBTB11 / RFU, TAMM41 / Fold change vs veh, TAMM41 / RFU, KIAA1704 /// LOC100996395 / Fold change vs veh, KIAA1704 /// LOC100996395 / RFU, ING1 / Fold change vs veh, ING1 / RFU, TRMT61B / Fold change vs veh, TRMT61B / RFU, FUBP3 / Fold change vs veh, FUBP3 / RFU, TP53 / Fold change vs veh, TP53 / RFU, TNKS2 / Fold change vs veh, TNKS2 / RFU, ZFP14 / Fold change vs veh, ZFP14 / RFU, ACTR2 / Fold change vs veh, ACTR2 / RFU, PPP3R1 / Fold change vs veh, PPP3R1 / RFU, PIK3R1 / Fold change vs veh, PIK3R1 / RFU, HNRNPA1 / Fold change vs veh, HNRNPA1 / RFU, RNF170 / Fold change vs veh, RNF170 / RFU, ZNF28 / Fold change vs veh, ZNF28 / RFU, RNGTT / Fold change vs veh, RNGTT / RFU, OGT / Fold change vs veh, OGT / RFU, BRD1 / Fold change vs veh, BRD1 / RFU, MARS / Fold change vs veh, MARS / RFU, ZNF655 / Fold change vs veh, ZNF655 / RFU, FAHD1 / Fold change vs veh, FAHD1 / RFU, BDP1 / Fold change vs veh, BDP1 / RFU, LRRCC1 / Fold change vs veh, LRRCC1 / RFU, ARID1A / Fold change vs veh, ARID1A / RFU, ZNF146 / Fold change vs veh, ZNF146 / RFU, ZNF330 / Fold change vs veh, ZNF330 / RFU, GPN3 / Fold change vs veh, GPN3 / RFU, C9orf123 / Fold change vs veh, C9orf123 / RFU, N4BP2L2 / Fold change vs veh, N4BP2L2 / RFU, ARFIP1 / Fold change vs veh, ARFIP1 / RFU, FAM179B / Fold change vs veh, FAM179B / RFU, BCL10 / Fold change vs veh, BCL10 / RFU, UHRF1BP1L / Fold change vs veh, UHRF1BP1L / RFU, BET1 / Fold change vs veh, BET1 / RFU, CNOT2 / Fold change vs veh, CNOT2 / RFU, ZNF268 / Fold change vs veh, ZNF268 / Fold change vs veh, ZNF507 / RFU, DGCR2 / Fold change vs veh, DGCR2 / RFU, WDSUB1 / Fold change vs veh, WDSUB1 / Fold change vs veh, HSP90B1 /// MIR3652 / RFU, ADSS / Fold change vs veh, ADSS / RFU, GK / Fold change vs veh, GK / RFU, ZNF148 / Fold change vs veh, ZNF148 / RFU, TAF9 / Fold change vs veh, TAF9 / RFU, SLC1A5 / Fold change vs veh, SLC1A5 / RFU, SLMO2 / Fold change vs veh, SLMO2 / RFU, ABCC4 / Fold change vs veh, ABCC4 / RFU, LOC101060439 /// RAP1B / Fold change vs veh, LOC101060439 /// RAP1B / RFU, RFX7 / Fold change vs veh, RFX7 / RFU, GTPBP10 / Fold change vs veh, GTPBP10 / RFU, CNEP1R1 / Fold change vs veh, CNEP1R1 / RFU, BIVM-ERCC5 /// ERCC5 / Fold change vs veh, BIVM-ERCC5 /// ERCC5 / RFU, ILF3 / Fold change vs veh, ILF3 / RFU 11762660_at / Fold change /veh 11762660_at / RFU VCAN (11757783_s_at) / Fold change /veh VCAN (11757783_s_at) / RFU DDX43 (11728927_at) / Fold change /veh DDX43 (11728927_at) / RFU KRT8 (11758188_x_at) / Fold change /veh KRT8 (11758188_x_at) / RFU NKD1 (11759106_at) / Fold change /veh NKD1 (11759106_at) / RFU SRD5A1 (11742802_a_at) / Fold change /veh SRD5A1 (11742802_a_at) / RFU TPSAB1 /// TPSB2 (11721975_s_at) / Fold change /veh TPSAB1 /// TPSB2 (11721975_s_at) / RFU GSTM3 (11746129_a_at) / Fold change /veh GSTM3 (11746129_a_at) / RFU IL23R (11737362_x_at) / Fold change /veh IL23R (11737362_x_at) / RFU TMEM51 (11727254_a_at) / Fold change /veh TMEM51 (11727254_a_at) / RFU PIWIL2 (11732686_x_at) / Fold change /veh PIWIL2 (11732686_x_at) / RFU ORM1 (11744905_x_at) / Fold change /veh ORM1 (11744905_x_at) / RFU CCDC152 (11743942_at) / Fold change /veh CCDC152 (11743942_at) / RFU ECM1 (11717891_a_at) / Fold change /veh ECM1 (11717891_a_at) / RFU IL23R (11748794_a_at) / Fold change /veh IL23R (11748794_a_at) / RFU TNFAIP8L3 (11732012_x_at) / Fold change /veh TNFAIP8L3 (11732012_x_at) / RFU MBOAT4 (11741988_at) / Fold change /veh MBOAT4 (11741988_at) / RFU 11764193_at / Fold change /veh 11764193_at / RFU TMEM53 (11763286_at) / Fold change /veh TMEM53 (11763286_at) / RFU MAGEB2 (11727129_at) / Fold change /veh MAGEB2 (11727129_at) / RFU TMEM200A (11744735_a_at) / Fold change /veh TMEM200A (11744735_a_at) / RFU CCDC152 (11751479_a_at) / Fold change /veh CCDC152 (11751479_a_at) / RFU FAM211A (11726209_a_at) / Fold change /veh FAM211A (11726209_a_at) / RFU RGS16 (11746705_a_at) / Fold change /veh RGS16 (11746705_a_at) / RFU VCAN (11755009_s_at) / Fold change /veh VCAN (11755009_s_at) / RFU RHOB (11743442_s_at) / Fold change /veh RHOB (11743442_s_at) / RFU RGS16 (11720943_a_at) / Fold change /veh RGS16 (11720943_a_at) / RFU RGS16 (11720944_at) / Fold change /veh RGS16 (11720944_at) / RFU, VPS4B / Fold change vs veh, VPS4B / RFU, CREB1 / Fold change vs veh, CREB1 / RFU, DNAJC13 / Fold change vs veh, DNAJC13 / RFU, GNAQ / Fold change vs veh, GNAQ / RFU, CDK5R1 / Fold change vs veh, CDK5R1 / RFU, ZRANB3 / Fold change vs veh, ZRANB3 / RFU, CUL4A / Fold change vs veh, CUL4A / RFU, CCNY / Fold change vs veh, CCNY / RFU, UFL1 / Fold change vs veh, UFL1 / RFU, COG3 / Fold change vs veh, COG3 / RFU, DIAPH2 / Fold change vs veh, DIAPH2 / RFU, SKA2 / Fold change vs veh, SKA2 / RFU, AFF3 / Fold change vs veh, AFF3 / RFU, LMF1 / Fold change vs veh, LMF1 / RFU, IPO11 / Fold change vs veh, IPO11 / RFU, DFFB / Fold change vs veh, DFFB / RFU, FOXP1 / Fold change vs veh, FOXP1 / RFU, CARD8 / Fold change vs veh, CARD8 / RFU, STRN3 / Fold change vs veh, STRN3 / RFU, ADK / Fold change vs veh, ADK / RFU, RASSF2 / Fold change vs veh, RASSF2 / RFU, WIPF1 / Fold change vs veh, WIPF1 / RFU, LARP1B / Fold change vs veh, LARP1B / RFU, RASA1 / Fold change vs veh, RASA1 / RFU, RB1 / Fold change vs veh, RB1 / RFU, PPFIA1 / Fold change vs veh, PPFIA1 / RFU, MAT2A / Fold change vs veh, MAT2A / RFU, CCT5 / Fold change vs veh, CCT5 / RFU, WDR92 / Fold change vs veh, WDR92 / RFU, CUX1 / Fold change vs veh, CUX1 / RFU, TTC7A / Fold change vs veh, TTC7A / RFU, TMEM135 / Fold change vs veh, TMEM135 / RFU, DEPTOR / Fold change vs veh, DEPTOR / RFU, CPM / Fold change vs veh, CPM / RFU, DNAJB6 / Fold change vs veh, DNAJB6 / RFU, CACNA2D3 / Fold change vs veh, CACNA2D3 / RFU, DTX4 / Fold change vs veh, DTX4 / RFU, TFCP2 / Fold change vs veh, TFCP2 / RFU, GMCL1 /// GMCL1P1 / Fold change vs veh, GMCL1 /// GMCL1P1 / RFU, AEBP2 / Fold change vs veh, AEBP2 / RFU, SNHG1 /// SNORD22 /// SNORD25 /// SNORD26 /// SNORD27 /// SNORD28 /// SNORD29 /// SNORD31 / Fold change vs veh, SNHG1 /// SNORD22 /// SNORD25 /// SNORD26 /// SNORD27 /// SNORD28 /// SNORD29 /// SNORD31 / Fold change (Aza/veh), C12orf56 (ProbeSet 11735607_a_at) / Fold change (ACY-1035/veh), C12orf56 (ProbeSet 11735607_a_at) / Fold change (Aza/veh), FGFR1OP (ProbeSet 11751329_s_at) / Fold change (ACY-1035/veh), FGFR1OP (ProbeSet 11751329_s_at) / Fold change (Aza/veh), VPS36 (ProbeSet 11739960_a_at) / Fold change (ACY-1035/veh), VPS36 (ProbeSet 11739960_a_at) / RFU SYPL1 (11715823_x_at) / Fold change /veh SYPL1 (11715823_x_at) / RFU IGFBP7 (11715501_s_at) / Fold change /veh IGFBP7 (11715501_s_at) / RFU REEP3 (11722064_at) / Fold change /veh REEP3 (11722064_at) / RFU IGLL1 (11728026_x_at) / Fold change /veh IGLL1 (11728026_x_at): dose or concentration left out as unconfirmed
Settings: ProbeSet 11727958_a_at; LIST B

Nc1ccc(-c2cccs2)cc1NC(=O)c1ccc2c(c1)cc(C1CC1)n2CCN1CCOCC1 [ACY-1035]
RFU, ING1: 74.08 RFU
